First: BrCCCOc1ccc(-c2ccccc2)cc1
Second: COC(=O)C1=Cc2cc(-c3ccc(OCCOC(C)C)cc3)ccc2N(S(C)(=O)=O)CC1
The melting point of the first is lower: 60 to 63 °C for the first, 119 to 121 °C for the second.

First: CCN1c2ncc(CN(C)c3ccccc3)cc2C(=O)N(C)c2ccc(Cl)nc21
Second: CN(C)c1ccc(CN(C(=O)C2CCCc3c(O)cccc32)c2ccccc2)cc1 (stereo not given)
The melting point of the first is lower: 55 to 57 °C for the first, 138 to 143 °C for the second.

Compared with `O=C(/C=C/c1ccc(S(=O)(=O)N2CCN(c3ccc([N+](=O)[O-])cc3)CC2)cc1)NO`, `O=C1C(=O)N(Cc2ccc([N+](=O)[O-])cc2)CCN1Cc1ccc([N+](=O)[O-])cc1` is higher in melting point: 199 to 200 °C for the first, 257 to 260 °C for the second.

First: COC(=O)C1=C(C)NC(C)=C(C(=O)OC)C1c1cccc(N)c1
Second: COC(=O)Cc1coc2c(O)cccc12
The melting point of the first is higher: 214 to 215 °C for the first, 58 to 59 °C for the second.

Compared with `O=C(O)c1c[nH]c(CCc2ccccc2)n1`, `O=C(O)CCCCCc1c(OCc2ccccc2)ccc2cncn12` is higher in melting point: 126 to 130 °C for the first, 139 to 141 °C for the second.

First: CC(C)(C)OC(=O)N[C@H]1C[C@@H](CON2C(=O)c3ccccc3C2=O)C1
Second: CC(C)NC(=O)C1CC(=O)N(Cc2ccccc2)C1 (stereo not given)
The melting point of the first is lower: 120 to 122 °C for the first, 122 to 124 °C for the second.

Compared with `CC(C)c1ccc(C(=O)Cc2ccccc2C(F)(F)F)c(C(C)C)c1OS(N)(=O)=O`, `COc1cccc(CC(=O)O)c1OCCCc1cn(-c2ncc(C(F)(F)F)cc2Cl)nc1C(C)C` is lower in melting point: 144 to 149 °C for the first, 96 to 97 °C for the second.

Compared with `CC(NC(=C(C#N)S(=O)(=O)c1ccc(Cl)cc1)N(C)c1cc(C(F)(F)F)cc(C(F)(F)F)c1)C(C)(C)C` (stereo not given), `CC(C)(C)c1ccc(Cn2ccc3ccc(-c4ccc(C(F)(F)F)cc4)cc32)cc1` is lower in melting point: 152 to 154 °C for the first, 134 to 135 °C for the second.

First: O=C(C[C@H](C(=O)N[C@H](CO)Cc1ccccc1)n1cc(-c2ccc(-c3ccccc3)cc2)cn1)OCc1ccccc1
Second: O=C(OCc1ccccc1)C(CO)N(C(=O)OCc1ccccc1)C(=O)c1ccccc1 (stereo not given)
The melting point of the first is higher: 116 to 117 °C for the first, 94 to 95 °C for the second.

First: CCOC(=O)CSc1ccc(-c2nc3cnccc3[nH]2)cc1
Second: C=C(CC(=O)OCC)c1cc(F)c2cc(OC)ccc2c1
The melting point of the first is higher: 230 °C for the first, 50 to 52 °C for the second.

First: COc1ccc2c3c([nH]c2c1)CC(NC(C)=O)CC3 (stereo not given)
Second: O=C(CCC1CCNCC1)c1ccc2[nH]c3ccccc3c2c1
The melting point of the first is lower: 192 to 193 °C for the first, 206 to 209 °C for the second.

Compared with `COC(=O)c1cc(SC)cnc1C1=NC(C)(C(C)C)C(=O)N1` (stereo not given), `CC(C)(C)OC(=O)N(C(=O)OC(C)(C)C)c1cnc(-c2cncc(F)c2)s1` is lower in melting point: 107 to 108 °C for the first, 94 to 96 °C for the second.

Compared with `CCc1ccc2c(c1)C(=O)N(CCCCN1CCC(n3c(=O)oc4ccccc43)CC1)S2(=O)=O`, `COc1ccc(CCN2CCC(C(=O)O)(S(=O)(=O)c3ccc(OC)cc3)CC2)cc1` is higher in melting point: 165 to 168 °C for the first, 205 °C for the second.

First: COc1ccccc1-c1noc2ccc([N+](=O)[O-])cc12
Second: COc1cc2c3ccc(OC)c(OC)c3n(C(=O)c3cccc([N+](=O)[O-])c3)c2cc1OC
The melting point of the first is lower: 170 to 171 °C for the first, 187 to 191 °C for the second.

Compared with `Cc1cccc(C)c1NCCNCC(O)COc1cccc2[nH]c3ccccc3c12` (stereo not given), `N#Cc1cccc(C(=O)Nc2cccc(C(=O)NCCC(=O)OCc3ccccc3)c2)c1` is lower in melting point: 162 to 163 °C for the first, 128 to 131 °C for the second.

Compared with `Cc1nc(O)n(COCc2ccccc2)c1Sc1ccccc1`, `CN1C(=O)[C@H](NC(=O)CNc2ccccc2)N=C(c2ccccc2)c2ccccc21` is higher in melting point: 147 to 148 °C for the first, 245 to 246 °C for the second.

First: CCCCCC(=O)OCn1cnc2c1c(=O)n(C)c(=O)n2C
Second: CCCn1c(COC)nc2c(N)nc3ccc(OCC(=O)N4CCOCC4)cc3c21
The melting point of the first is lower: 67 to 72 °C for the first, 201 to 204 °C for the second.

First: Fc1ccc(Nc2ncnc3cnc(N4CCC(N5CCNCC5)CC4)nc23)cc1Cl
Second: Fc1ccc2c(c1)CC(CN1CCC(c3noc4cc(F)ccc34)CC1)O2 (racemic)
The melting point of the first is higher: 178 to 180 °C for the first, 129 to 130 °C for the second.

Compared with `CCN(CC)c1cc2cnnn2c(C)n1`, `COc1nc(C)n2nc(S(=O)(=O)Nc3c(Cl)cccc3Cl)nc2c1Cl` is higher in melting point: 57 to 58 °C for the first, 255 to 256 °C for the second.

First: Cc1cc2occc2cn1
Second: COc1cc(-n2cnc(CO)c2)cc(C(F)(F)F)c1
The melting point of the first is lower: 55 to 56 °C for the first, 133 to 134 °C for the second.

Compared with `CCCCCCCCCCCCCCOc1ccc(C(=O)Nc2cccc(CO)c2)cc1`, `CCCCCCCCC#Cc1ccc2nc(C=O)ccc2c1` is lower in melting point: 112 to 115 °C for the first, 46.5 to 47.5 °C for the second.

First: c1ccc(COC[C@H](CP(c2ccccc2)c2ccccc2)P(c2ccccc2)c2ccccc2)cc1
Second: Nc1ncnc2c1c(-c1ccc(Oc3ccccc3)cc1)nn2C1CCC2(CC1)OCCO2
The melting point of the first is lower: 88 °C for the first, 200 to 202 °C for the second.

Compared with `CCOC(=O)N1CCC2(CC1)Oc1ccccc1C2n1cccc1` (stereo not given), `COc1ccc(COc2cccc(-c3cnc4[nH]cc(C(=O)C(C)(C)C)c4n3)c2)cc1` is higher in melting point: 132 to 133 °C for the first, greater than 300 °C for the second.

Compared with `O=C1CSC(=S)N1N=c1sc2ccccc2s1`, `COc1ccc(S(=O)(=O)N2CSC(C)(C)[C@@H]2C(=O)NO)cc1` is lower in melting point: 295 to 300 °C for the first, 68 to 71 °C for the second.

First: CC1(C)CC(Nc2nc(NC3CC(C)(C)N(O)C(C)(C)C3)nc(N(C3CC(C)(C)N(O)C(C)(C)C3)C3CC(C)(C)N(O)C(C)(C)C3)n2)CC(C)(C)N1O
Second: CC(=O)OCCCCc1c(C)[nH]c(C(=O)OC(C)(C)C)c1C
The melting point of the first is higher: 243 to 246 °C for the first, 62 °C for the second.

Source: a melting point compilation (Tetko et al.; mined from patent text by program, amines drawn as free bases though some values may be those of a salt)
